In the data set the test system is rodent carcinogenicity bioassays, tumor incidence. Briefly: CCRIS carcinogenicity studies. A digest of the protocol: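 NCI-built, expert-reviewed records of carcinogenicity and related test outcomes (mutagenicity, tumor promotion/inhibition) compiled from published and report sources, historical span 1985-2011, not updated.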

The source made the active and inactive calls. The rule behind the calls is not given here.

`Nc1ccc(Oc2ccc(N)cc2)cc1`: the carcinogen call (Species: MOUSE, Strain/Sex: B6C3F1/FEMALE, Route: ORAL, Dose: 0, 0.015, 0.03, 0.08% IN DIET FOR 103 WK (STUDY DURATION: 104 WK), Dose: 0, 0.015, 0.03, 0.08% IN DIET FOR 103 WK (STUDY DURATION: 104 WK), Tumor Site: Type of Lesion: THYROID GLAND: FOLLICULAR ADENOMA, LIVER: ADENOMA, LIVER: HEPATOCELLULAR CARCINOMA, HARDERIAN GLAND: ADENOMA, Tumor Site: Type of Lesion: THYROID GLAND: FOLLICULAR ADENOMA, LIVER: ADENOMA, LIVER: HEPATOCELLULAR CARCINOMA, HARDERIAN GLAND: ADENOMA) was “active; positive”; the carcinogen call (Species: MOUSE, Strain/Sex: B6C3F1/FEMALE, Route: ORAL, Dose: 0, 150, 300, 800 PPM IN DIET, Dose: 0, 150, 300, 800 PPM IN DIET, Tumor Site: Type of Lesion: LIVER: HEPATOCELLULAR ADENOMA OR CARCINOMA, THYROID GLAND: FOLLICULAR CELL ADENOMA, HARDERIAN GLAND: ADENOMA, NOS, Tumor Site: Type of Lesion: LIVER: HEPATOCELLULAR ADENOMA OR CARCINOMA, THYROID GLAND: FOLLICULAR CELL ADENOMA, HARDERIAN GLAND: ADENOMA, NOS) was “active; positive”; the carcinogen call (Species: MOUSE, Strain/Sex: B6C3F1/MALE, Route: ORAL, Dose: 0, 0.015, 0.03, 0.08% IN DIET FOR 103 WK (STUDY DURATION: 104 WK), Dose: 0, 0.015, 0.03, 0.08% IN DIET FOR 103 WK (STUDY DURATION: 104 WK), Tumor Site: Type of Lesion: THYROID GLAND: FOLLICULAR HYPERPLASIA, HARDERIAN GLAND: ADENOMA) was “active; positive”; the carcinogen call (Species: MOUSE, Strain/Sex: B6C3F1/MALE, Route: ORAL, Dose: 0, 150, 300, 800 PPM IN DIET, Dose: 0, 150, 300, 800 PPM IN DIET, Tumor Site: Type of Lesion: LIVER: HEPATOCELLULAR ADENOMA OR CARCINOMA, HARDERIAN GLAND: ADENOMA, NOS) is “active; positive”; the carcinogen call (Species: RAT, Route: SUBCUTANEOUS, Tumor Site: Type of Lesion: LIVER) is “active; positive”; the carcinogen call (Species: RAT, Strain/Sex: F344/FEMALE, Route: ORAL, Dose: 0, 0.02, 0.04, 0.05% IN DIET FOR 103 WK (STUDY DURATION: 104 WK), Dose: 0, 0.02, 0.04, 0.05% IN DIET FOR 103 WK (STUDY DURATION: 104 WK), Tumor Site: Type of Lesion: THYROID GLAND: FOLLICULAR CARCINOMA, THYROID GLAND: FOLLICULAR ADENOMA, LIVER: NEOPLASTIC NODULE, LIVER: HEPATOCELLULAR, Tumor Site: Type of Lesion: THYROID GLAND: FOLLICULAR CARCINOMA, THYROID GLAND: FOLLICULAR ADENOMA, LIVER: NEOPLASTIC NODULE, LIVER: HEPATOCELLULAR) was “active; positive”. Besides, the carcinogen call runs as follows: (Species: RAT, Strain/Sex: F344/FEMALE, Route: ORAL, Dose: 0, 200, 400, 500 PPM IN DIET, Dose: 0, 200, 400, 500 PPM IN DIET, Tumor Site: Type of Lesion: LIVER: HEPATOCELLULAR CARCINOMA OR NEOPLASTIC NODULE, THYROID GLAND: FOLLICULAR CELL ADENOMA OR CARCINOMA) “active; positive”; (Species: RAT, Strain/Sex: F344/MALE, Route: ORAL, Dose: 0, 0.02, 0.04, 0.05% IN DIET FOR 103 WK (STUDY DURATION: 104 WK), Dose: 0, 0.02, 0.04, 0.05% IN DIET FOR 103 WK (STUDY DURATION: 104 WK), Tumor Site: Type of Lesion: THYROID GLAND: FOLLICULAR CARCINOMA, THYROID GLAND: FOLLICULAR ADENOMA, LIVER: NEOPLASTIC NODULE, LIVER: HEPATOCELLULAR, Tumor Site: Type of Lesion: THYROID GLAND: FOLLICULAR CARCINOMA, THYROID GLAND: FOLLICULAR ADENOMA, LIVER: NEOPLASTIC NODULE, LIVER: HEPATOCELLULAR) “active; positive”; (Species: RAT, Strain/Sex: F344/MALE, Route: ORAL, Dose: 0, 200, 400, 500 PPM IN DIET, Dose: 0, 200, 400, 500 PPM IN DIET, Tumor Site: Type of Lesion: LIVER: HEPATOCELLULAR CARCINOMA OR NEOPLASTIC NODULE, THYROID GLAND: FOLLICULAR CELL ADENOMA OR CARCINOMA) “active; positive”.
As for `CCSC(C)CC1CC(=O)C(/C(CC)=N/OC/C=C/Cl)=C(O)C1` (stereo not given), the carcinogen call reads like this: (Species: Mouse, Strain/Sex: ???/Female (50/group), Route: Oral, Dose: 0, 20, 200, 1,000, 2,000 ppm increased to 3,000 ppm after 15th wk in diet for 78 wk, Dose: 0, 20, 200, 1,000, 2,000 ppm increased to 3,000 ppm after 15th wk in diet for 78 wk) “inactive; negative (study details not given in source; purity 83.3%)”; (Species: Mouse, Strain/Sex: ???/Male (50/group), Route: Oral, Dose: 0, 20, 200, 1,000, 2,000 ppm increased to 3,000 ppm after 15th wk in diet for 78 wk, Dose: 0, 20, 200, 1,000, 2,000 ppm increased to 3,000 ppm after 15th wk in diet for 78 wk) “inactive; negative (study details not given in source; purity 83.3%)”.
Turning to `CCC(C)OC(=O)N1CCCCC1CCO` (stereo not given), the carcinogen call reads like this: (Species: MOUSE, Strain/Sex: CD-1/FEMALE, Route: DERMAL, Dose: 0, 50, 100, 200 MG/KG BW FOR 78 WK (STUDY DURATION: 78 WK), Dose: 0, 50, 100, 200 MG/KG BW FOR 78 WK (STUDY DURATION: 78 WK)) “inactive; negative”; (Species: MOUSE, Strain/Sex: CD-1/MALE, Route: DERMAL, Dose: 0, 50, 100, 200 MG/KG BW FOR 78 WK (STUDY DURATION: 78 WK), Dose: 0, 50, 100, 200 MG/KG BW FOR 78 WK (STUDY DURATION: 78 WK)) “inactive; negative”; (Species: RAT, Strain/Sex: SPRAGUE-DAWLEY/FEMALE, Route: DERMAL, Dose: 0, 50, 100, 200 MG/KG BW FOR 104 WK (STUDY DURATION: 104 WK), Dose: 0, 50, 100, 200 MG/KG BW FOR 104 WK (STUDY DURATION: 104 WK)) “inactive; negative”; (Species: RAT, Strain/Sex: SPRAGUE-DAWLEY/MALE, Route: DERMAL, Dose: 0, 50, 100, 200 MG/KG BW FOR 104 WK (STUDY DURATION: 104 WK), Dose: 0, 50, 100, 200 MG/KG BW FOR 104 WK (STUDY DURATION: 104 WK)) “inactive; negative”.
As to `CC(COc1ccccc1)N(CCCl)Cc1ccccc1` (stereo not given), the carcinogen call (Species: MOUSE, Strain/Sex: B6C3F1/FEMALE, Route: INTRAPERITONEAL, Dose: 0, 12.5, 25 MG/KG 3/WK FOR 50 OR 52 WK, Dose: 0, 12.5, 25 MG/KG 3/WK FOR 50 OR 52 WK, Tumor Site: Type of Lesion: PERITONEAL CAVITY: SARCOMA) is “active; positive”; the carcinogen call (Species: MOUSE, Strain/Sex: B6C3F1/MALE, Route: INTRAPERITONEAL, Dose: 0, 12.5, 25 MG/KG 3/WK FOR 50 OR 52 WK, Dose: 0, 12.5, 25 MG/KG 3/WK FOR 50 OR 52 WK, Tumor Site: Type of Lesion: PERITONEAL CAVITY: SARCOMA) is “active; positive”; the carcinogen call (Species: MOUSE, Strain/Sex: STRAIN-A/MALE,FEMALE, Route: INTRAPERITONEAL, Dose: 40, 100, 200 MG/KG IN TRICAPRYLIN, Dose: 40, 100, 200 MG/KG IN TRICAPRYLIN, Tumor Site: Type of Lesion: LUNG: ADENOMA) is “active; positive”; the carcinogen call (Species: RAT, Strain/Sex: SPRAGUE-DAWLEY/FEMALE, Route: INTRAPERITONEAL, Dose: 0, 5, 10 MG/KG 3/WK FOR 52 WKS, Dose: 0, 5, 10 MG/KG 3/WK FOR 52 WKS, Tumor Site: Type of Lesion: PERITONEAL CAVITY: SARCOMA) was “active; positive”; the carcinogen call (Species: RAT, Strain/Sex: SPRAGUE-DAWLEY/MALE, Route: INTRAPERITONEAL, Dose: 0, 5, 10 MG/KG 3/WK FOR 52 WK, Dose: 0, 5, 10 MG/KG 3/WK FOR 52 WK, Tumor Site: Type of Lesion: PERITONEAL CAVITY: SARCOMA) is “active; positive”.
As to `CC(C)(C)c1cc(O)c(C(C)(C)C)cc1O`, the carcinogen call (Species: HAMSTER, Strain/Sex: SYRIAN/MALE, Route: ORAL, Dose: 1% IN DIET FOR 24 WK (STUDY DURATION: 24 WK), Tumor Site: Type of Lesion: FORESTOMACH: PAPILLOMA) is “active; positive”.
Regarding `Cc1cc(N)ccc1N`, the carcinogen call was “inactive; negative” (Species: MOUSE, Strain/Sex: B6C3F1/FEMALE, Route: ORAL, Dose: 0, 0.06, 0.1% OF DIET, TWA, Dose: 0, 0.06, 0.1% OF DIET, TWA); “inactive; negative” (Species: MOUSE, Strain/Sex: B6C3F1/MALE, Route: ORAL, Dose: 0, 0.06, 0.1% OF DIET, TWA, Dose: 0, 0.06, 0.1% OF DIET, TWA); “inactive; negative” (Species: RAT, Strain/Sex: F344/FEMALE, Route: ORAL, Dose: 0, 0.06, 0.2% OF DIET, TWA, Dose: 0, 0.06, 0.2% OF DIET, TWA); “inactive; negative” (Species: RAT, Strain/Sex: F344/MALE, Route: ORAL, Dose: 0, 0.06, 0.2% OF DIET, TWA, Dose: 0, 0.06, 0.2% OF DIET, TWA).

The values above are taken from PubChem BioAssay AID1259411 (Chemical Carcinogenesis Research Information System (CCRIS), 2018).
